Target: PFKFB3 (Homo sapiens (Human), UniProt Q16875)
Experiment: PFKFB3 kinase activity, Method A (F-2,6-P2 production, coupled PPi-PFK/NADH assay)
Format: biochemical
Text: The PFKFB3 (placenta form) and PFKFB4 were produced and purified to homogeneity from E. coli at Biovitrum and at Sprint Bioscience. All other reagents were purchased from commercial sources. Two independent methods have been used for determination of the kinase activity of PFKFB3 (Method A and Method B). Method B has been used for determination of the kinase activity of PFKFB4.
Method A: The kinase activity of the bi-functional enzyme is readily quantified based on the production of F-2,6-P2 as described by Van Schaftingen et al. (1982) Eur. J. Biochem. 129, 191-5. This sensitive assay is based on the potent activation of pyrophosphate dependent phosphofructokinase-1 (PPi-PFK) from potato tubers by F-2,6-P2. The use of a series of coupled enzymes leads to a consumption of NADH (nicotinamide adenine dinucleotide) that can be followed spectrophotometrically (an updated protocol is available in Van Schaftingen, (1984) Methods of Enzymatic Analysis (Bergmeyer, H. U., ed.), 3rd edn., vol. 6, pp. 335-341, Verlag Chemie, Weinheim). A protocol for measurements in 96-well microtiter plate format is also available (Bruni et al., (1989) Anal. Biochem. 178, 324-6). These assay protocols have been adopted for the measurement of the kinase activity of PFKFB3 with some modifications as described in the protocol below.
The assay was run in 96-well microtiter plates (Costar 3365 round bottom polypropylene) by consecutive additions of 30 μl each of a test compound solution (diluted from a DMSO stock solution), a PFKFB3 solution and a substrate (fructose-6-phosphate (F6P) and adenosine-5′-triphosphate (ATP)) containing solution. […] The final concentrations of all reagents in a total assay volume of 90 μl per well were: • 50 mM Tris-acetate at pH 8.0 • 0.1 mM EDTA (ethylene diamine tetraacetic acid) • 10 mM MgCl2 • 5 mM Na2HPO4 (buffered by the Tris-acetate to a final pH of 8.0) • 5 nM PFKFB3 • 4 μM ATP • 100 μM F6P (acid treated and then neutralized to remove any contaminating F-2,6-P2; see Van Schaftingen, 1984) • 1 mM dithiothreitol (DTT) • 0.005% Tween-20
A test compound at various concentrations (which also added 0.83% DMSO to the final solution)
The enzymatic reaction was allowed to proceed for 10 minutes at room temperature while on a plate shaker at medium speed (750 RPM). The reaction was then terminated by the addition of 90 μl of a 0.4 M NaOH solution to all wells. The plate was then placed on the plateshaker at the same speed for two minutes to allow sufficient mixing. All samples were then diluted by a factor of 10 by transferring 20 μl from each well to the corresponding well of a new plate with 180 μl distilled water predispensed to all wells.
The next step in the protocol was quantification of the levels of F-2,6-P2 in each well of the microtiter plate. This was done by transferring 20 μl of the content in each well to the corresponding position in a new plate (Nunc 269620 transparent 96-well plate). […] To ensure that all measured values were within the linear range of the response (measured to be between 0-1 nM of F-2,6-P2 as also described by Van Schaftingen) the same volume of a 2.5 nM and a 5.0 nM standard sample were also added to column 12 (as all samples were diluted five-fold in the assay procedure this corresponds to 0.5 and 1.0 nM samples). The procedure then involved consecutive additions of three solutions with the following premixed components: • Assay-mix (20 μl): Tris-acetate at pH 8.0, NADH and Mg(OAc)2 • PPi/F6P-mix (40 μl): Pyrophosphate and F6P • Enzyme-mix (20 μl): Tris-acetate at pH 8.0, aldolase, triose phosphate isomerase, glycerol-3-phosphate dehydrogenase, pyrophosphate-dependent phosphofructokinase from potato tubers and bovine serum albumin (BSA) […]

Sequence of PFKFB3 (Q16875 whole entry): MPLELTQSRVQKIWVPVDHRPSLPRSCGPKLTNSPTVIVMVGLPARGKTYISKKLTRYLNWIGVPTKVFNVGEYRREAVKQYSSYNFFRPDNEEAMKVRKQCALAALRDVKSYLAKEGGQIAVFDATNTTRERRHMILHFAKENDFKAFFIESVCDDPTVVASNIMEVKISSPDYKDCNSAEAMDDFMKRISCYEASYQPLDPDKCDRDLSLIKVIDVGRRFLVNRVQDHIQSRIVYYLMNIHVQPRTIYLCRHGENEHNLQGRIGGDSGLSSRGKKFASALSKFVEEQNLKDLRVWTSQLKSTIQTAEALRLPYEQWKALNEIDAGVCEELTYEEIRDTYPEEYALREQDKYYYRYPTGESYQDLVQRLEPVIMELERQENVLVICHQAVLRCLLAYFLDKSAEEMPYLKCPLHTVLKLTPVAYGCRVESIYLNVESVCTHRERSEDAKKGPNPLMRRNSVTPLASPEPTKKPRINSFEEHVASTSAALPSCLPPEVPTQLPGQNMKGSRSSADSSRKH

IC50 [nM]	Compound
30	Cc1c(S(=O)(=O)Nc2cccc(C(=O)O)c2)sc2ccc(C(C)C)cc12 [Example 5, 3-{[(5-Isopropyl-3-methyl-1-benzothien-2-yl)sulfonyl]amino}benzoic acid]
180	Cc1c(S(=O)(=O)Nc2cccc(C(=O)O)c2)sc2ccc(Cl)cc12 [Example 38, 3-{[(5-Chloro-3-methyl-1-benzothien-2-yl)sulfonyl]amino}benzoic acid]

Source: patent publication US9233946B2, “Sulfonamide compounds” (KANCERA AB, priority 2010, dated 2016)
